In patent US8354269B2 (priority 2008, dated 2013):
Read-outs that look alike come from different tables or passages of the source.

What was measured:
[1] = test system: Clostridium autoethanogenum culture 19630; settings: 54 hours
Protocol: (§1) To determine the cell density in these experiments, the absorbance of the samples was measured at 600 nm (spectrophotometer) and the dry mass determined by extrapolation.
Each well was inoculated with 50 μL of an actively growing Clostridium autoethanogenum culture 19630 from a continuous bioreactor. The wells were then mixed thoroughly and 200 ul from each well was added to a 96 well tissue culture plate. The plate was then sealed with a gas permeable sealing film and placed into an anaerobic pressure vessel. This vessel was pressurized to 30 psi with 100% CO gas and placed on an orbital shaker (150 rpm) in an incubated chamber at 37° C. Samples were analyzed at 54 hours after incubation.

[2] = test system: Clostridium autoethanogenum culture 19630; settings: NiCl2 1 mM, fructose 3 g/L
Protocol: as §1
High Performance Liquid Chromatography (HPLC) was used to characterize the level of substrates and products such as for acetate, ethanol, fructose, xylose and pyruvate. HPLC System Agilent 1100 Series. Mobile Phase: 0.0025N Sulphuric Acid. Flow and pressure: 0.800 mL/min. Column: Alltech IOA; Catalog #9648, 150×6.5 mm, particle size 5 μm. Temperature of column: 60° C. Detector: Refractive Index. Temperature of detector: 45° C.
Method for sample preparation: 400 μL of sample+50 μL of 0.15M ZnSO4+50 μL of 0.15M Ba(OH)2 into an Eppendorf tube. Centrifuge 10 min at 12,000 rpm, 4° C. Transfer 200 μL supernatant into an HPLC vial and inject into the HPLC instrument 5 μL.
Sterile 234 ml serum bottles were purged three times with 95% CO, 5% CO2 gas and then evacuated to a vacuum of −5 psi. The serum bottles were charged with 25 ml of LM33 media. NiCl2 solution (to final concentrations of 1 mM) and fructose (3 g/L) were added to the serum bottle which was inoculated with 1 ml of an actively growing Clostridium autoethanogenum culture 19630 from a continuous bioreactor. The headspace of the serum bottle was then filled with CO containing gas to 30 psi (composition 100% CO). The serum bottles were incubated at 37° C. and continuously agitated. Samples were taken at intervals and the headspace was purged and refreshed up to 30 psi following sampling.

[3] = test system: Clostridium ljungdahlii DSM13528
Source text: Growth was monitored by measuring the optical density at 600 nm (OD600nm) and metabolites were detected by HPLC.

[Cl][Ni][Cl] [Nickel, nickel chloride] gave a Cell density ([1]; Additional Nickel 100 μM) of 0.23 g/L, a Cell density ([1]; Additional Nickel 200 μM) of 0.25 g/L and a Cell density ([1]; Additional Nickel 300 μM) of 0.28 g/L. The Cell density ([1]; Additional Nickel 400 μM) was 0.30 g/L, the Cell density ([1]; Additional Nickel 500 μM) was 0.35 g/L and the Cell density ([1]; Additional Nickel 600 μM) was 0.31 g/L. For the same compound, the Cell density ([1]; Additional Nickel 700 μM) was 0.37 g/L, the Cell density ([1]; Additional Nickel 800 μM) was 0.45 g/L and the Cell density ([1]; Additional Nickel 900 μM) was 0.43 g/L. For the same compound, the Cell density ([1]; Additional Nickel 1000 μM) was 0.39 g/L, the “Acetic Acid” value ([2]; 12 h after inoculation) was 0.42 g/L and the Cell density ([2]; 12 h after inoculation) was 0.16 g/L. The Ethanol ([2]; 12 h after inoculation) was 0.25 g/L, the Fructose ([2]; 12 h after inoculation) was 2.87 g/L and the “Acetic Acid” value ([2]; 18 h after inoculation) was 0.48 g/L. It also gave a Cell density ([2]; 18 h after inoculation) of 0.20 g/L, an Ethanol ([2]; 18 h after inoculation) of 0.61 g/L and a Fructose ([2]; 18 h after inoculation) of 2.4 g/L. The “Acetic Acid” value ([2]; 30 h after inoculation) was 0.45 g/L, the Cell density ([2]; 30 h after inoculation) was 0.73 g/L and the Ethanol ([2]; 30 h after inoculation) was 4.19 g/L. The Fructose ([2]; 30 h after inoculation) was 0 g/L, the “Acetic Acid” value ([2]; 80 h after inoculation) was 0.38 g/L and the Cell density ([2]; 80 h after inoculation) was 0.98 g/L. The Ethanol ([2]; 80 h after inoculation) was 7.60 g/L, the Fructose ([2]; 80 h after inoculation) was 0 g/L and the “Acetic Acid” value ([2]; 96 h after inoculation) was 0.31 g/L. It also gave a Cell density ([2]; 96 h after inoculation) of 1.07 g/L, an Ethanol ([2]; 96 h after inoculation) of 7.81 g/L and a Fructose ([2]; 96 h after inoculation) of 0 g/L. For the same compound, the Ethanol ([3]; Nickel 200 μM, 0 h) was 0.23 ± 0.02 g/L, the OD600 nm ([3]; Nickel 200 μM, 0 h) was 0.010 ± 0.001 and the Acetate ([3]; Nickel 200 μM, 30 h) was 0.07 ± 0.07 g/L. It also gave an Ethanol ([3]; Nickel 200 μM, 30 h) of 0.23 ± 0.02 g/L, an OD600 nm ([3]; Nickel 200 μM, 30 h) of 0.057 ± 0.003 and an Acetate ([3]; Nickel 200 μM, 54 h) of 0.24 ± 0.10 g/L. The Ethanol ([3]; Nickel 200 μM, 54 h) was 0.27 ± 0.03 g/L, the OD600 nm ([3]; Nickel 200 μM, 54 h) was 0.163 ± 0.053 and the Acetate ([3]; Nickel 200 μM, 102 h) was 0.38 ± 0.10 g/L. For the same compound, the Ethanol ([3]; Nickel 200 μM, 102 h) was 0.57 ± 0.11 g/L, the OD600 nm ([3]; Nickel 200 μM, 102 h) was 0.273 ± 0.001 and the Acetate ([3]; Nickel 200 μM, 127 h) was 0.77 ± 0.24 g/L. The Ethanol ([3]; Nickel 200 μM, 127 h) was 0.58 ± 0.07 g/L, the OD600 nm ([3]; Nickel 200 μM, 127 h) was 0.284 ± 0.010 and the Ethanol ([3]; Nickel 400 μM, 0 h) was 0.22 ± 0.02 g/L. It also gave an OD600 nm ([3]; Nickel 400 μM, 0 h) of 0.011 ± 0.002, an Ethanol ([3]; Nickel 400 μM, 30 h) of 0.22 ± 0.01 g/L and an OD600 nm ([3]; Nickel 400 μM, 30 h) of 0.097 ± 0.024. For the same compound, the Acetate ([3]; Nickel 400 μM, 54 h) was 0.15 ± 0.04 g/L, the Ethanol ([3]; Nickel 400 μM, 54 h) was 0.21 ± 0.02 g/L and the OD600 nm ([3]; Nickel 400 μM, 54 h) was 0.114 ± 0.030. For the same compound, the Acetate ([3]; Nickel 400 μM, 102 h) was 0.20 ± 0.01 g/L, the Ethanol ([3]; Nickel 400 μM, 102 h) was 0.53 ± 0.31 g/L and the OD600 nm ([3]; Nickel 400 μM, 102 h) was 0.199 ± 0.103. For the same compound, the Acetate ([3]; Nickel 400 μM, 127 h) was 0.30 ± 0.19 g/L, the Ethanol ([3]; Nickel 400 μM, 127 h) was 0.77 ± 0.24 g/L and the OD600 nm ([3]; Nickel 400 μM, 127 h) was 0.310 ± 0.017. The Ethanol ([3]; Nickel 700 μM, 0 h) was 0.25 ± 0.01 g/L, the OD600 nm ([3]; Nickel 700 μM, 0 h) was 0.009 ± 0.001 and the Ethanol ([3]; Nickel 700 μM, 30 h) was 0.24 ± 0.01 g/L. For the same compound, the OD600 nm ([3]; Nickel 700 μM, 30 h) was 0.235 ± 0.076, the Acetate ([3]; Nickel 700 μM, 54 h) was 0.21 ± 0.05 g/L and the Ethanol ([3]; Nickel 700 μM, 54 h) was 0.35 ± 0.11 g/L. For the same compound, the OD600 nm ([3]; Nickel 700 μM, 54 h) was 0.427 ± 0.182, the Acetate ([3]; Nickel 700 μM, 102 h) was 0.24 ± 0.03 g/L and the Ethanol ([3]; Nickel 700 μM, 102 h) was 0.73 ± 0.01 g/L. It also gave an OD600 nm ([3]; Nickel 700 μM, 102 h) of 0.579 ± 0.062, an Acetate ([3]; Nickel 700 μM, 127 h) of 0.34 ± 0.16 g/L and an Ethanol ([3]; Nickel 700 μM, 127 h) of 0.82 ± 0.03 g/L. It also gave an OD600 nm ([3]; Nickel 700 μM, 127 h) of 0.528 ± 0.054, an Ethanol ([3]; Nickel 1000 μM, 0 h) of 0.24 ± 0.01 g/L and an OD600 nm ([3]; Nickel 1000 μM, 0 h) of 0.011 ± 0.001. For the same compound, the Ethanol ([3]; Nickel 1000 μM, 30 h) was 0.26 ± 0.01 g/L, the OD600 nm ([3]; Nickel 1000 μM, 30 h) was 0.549 ± 0.049 and the Acetate ([3]; Nickel 1000 μM, 54 h) was 0.23 ± 0.02 g/L. It also gave an Ethanol ([3]; Nickel 1000 μM, 54 h) of 0.42 ± 0.14 g/L, an OD600 nm ([3]; Nickel 1000 μM, 54 h) of 0.691 ± 0.017 and an Acetate ([3]; Nickel 1000 μM, 102 h) of 0.31 ± 0.03 g/L. It also gave an Ethanol ([3]; Nickel 1000 μM, 102 h) of 0.68 ± 0.26 g/L, an OD600 nm ([3]; Nickel 1000 μM, 102 h) of 0.862 ± 0.324 and an Acetate ([3]; Nickel 1000 μM, 127 h) of 0.46 ± 0.03 g/L. The Ethanol ([3]; Nickel 1000 μM, 127 h) was 0.98 ± 0.11 g/L and the OD600 nm ([3]; Nickel 1000 μM, 127 h) was 0.853 ± 0.329.
